Test results as given in patent US20250303354A1, “ACIDIC GAS REMOVAL AGENT, ACIDIC GAS REMOVAL METHOD, ACIDIC GAS ABSORPTION DEVICE, AND CLEANING DEVICE” (AGC Inc., priority 2022, published 2025).

Assay: Amounts of carbon dioxide absorption in test liquid (physical absorption, pressure-drop method)
Type: physicochemical
Settings: 30° C.; for Amount of carbon dioxide absorption, not in coexistence of water a: 100% by mass of compound as test liquid; for Amount of carbon dioxide absorption, not in coexistence of water a / Amount of carbon dioxide absorption, in coexistence of water b: calculated via Henry's constant for P 3.0 MPa; for Amount of carbon dioxide absorption, in coexistence of water b: mixture of 90% by mass of compound and 10% by mass of water; for Carbon dioxide absorption ratio b/a: ratio of absorption in coexistence of water to not in coexistence of water, 3 MPa
Protocol: A 300-mL pressure-resistant container (A) connected to a carbon dioxide cylinder by piping, and a 150-mL pressure-resistant container were prepared, and amounts of carbon dioxide absorption were determined through a procedure of (i) to (iv) shown below. A regulator and a pressure gage were connected between the carbon dioxide cylinder and pressure-resistant container (A), and pressure-resistant container (A) and pressure-resistant container (B) were soaked in a water bath.
(i) The temperature of the water bath was set to 30° C., and pressure-resistant container (B) containing 50 mL of a test liquid was degassed under reduced pressure with a vacuum pump.
(ii) Pressure-resistant container (A) was filled with carbon dioxide depressurized to 0.20 MPa through the regulator, and the pressure at that time was measured. Thereafter, pressure-resistant container (A) and pressure-resistant container (B) were connected together, and the pressure after 1 hour was measured. Assuming that carbon dioxide in an amount corresponding to the reduction of pressure was absorbed in the test liquid, the amount in moles of adsorbed carbon dioxide per unit mass (mol/kg) was calculated.
(iii) The same operation as (ii) was performed at 0.35 MPa, 0.50 MPa, 0.60 MPa, and 0.80 MPa, and the Henry's constant, Hb (MPa·kg/mol), which indicates the pressure dependence of the amount in moles of adsorbed carbon dioxide (mol/kg), was calculated.
(iv) The amount of carbon dioxide absorption per unit mass of the test liquid (g/kg) was calculated from the following expression:
n: molar mass of carbon dioxide=44 (g/mol).
In the calculation, P (MPa) was 3.0 MPa, which is a representative condition for using physical absorption liquid.
For the case that an acidic gas removing agent (100% by mass of compound) was used as a test liquid (not in coexistence of water) and the case that a mixture of 90% by mass of the acidic gas removing agent (compound) and 10% by mass of water was used as a test liquid (in the coexistence of water), the amounts of carbon dioxide absorption in the test liquids were determined.
The carbon dioxide absorption ratio is the ratio (b/a) of the amount of carbon dioxide absorption per unit mass of a mixture of 90% by mass of an acidic gas removing agent and 10% by mass of water, b (g/kg), to the amount of carbon dioxide absorption per unit mass of the acidic gas removing agent, a (g/kg).

| Amount of carbon dioxide absorption, not in coexistence of water a [g/kg] | Amount of carbon dioxide absorption, in coexistence of water b [g/kg] | Carbon dioxide absorption ratio b/a | SMILES |
| --- | --- | --- | --- |
| 149 | 134 | 0.90 | CCCCOCCOCCOCC(C)OCC(C)OCC(C)OCC(C)OCC(C)OC (stereo not drawn) [B-3] |
| 104 | 79 | 0.76 | CC(O)COC(C)COC(C)COCC(C)OCC(C)OCC(C)OCC(C)O (stereo not drawn) [A-8] |
| 128 | 98 | 0.77 | CCCCOCCOCC(C)OCC(C)OCC(C)O (stereo not drawn) [A-2] |
| 134 | 120 | 0.89 | CCCCOCC(C)OCC(C)OCC(C)OCC(C)OCC(C)OCC(C)OCC(C)OC (stereo not drawn) [B-1] |

Further lines, the compound ahead of its results:

| SMILES | Amount of carbon dioxide absorption, not in coexistence of water a [g/kg] | Amount of carbon dioxide absorption, in coexistence of water b [g/kg] | Carbon dioxide absorption ratio b/a |
| --- | --- | --- | --- |
| COC(C)COC(C)COC(C)COC(C)COC(C)COC(C)COCCOC(C)(C)C (stereo not drawn) [B-4] | 142 | 128 | 0.90 |
| COC(C)COC(C)COC(C)COCC(C)OCC(C)OCC(C)OCC(C)OC (stereo not drawn) [B-6] | 144 | 122 | 0.85 |
| COC(C)COC(C)COC(C)COC(C)COC(C)COC(C)COCCOCC(C)C (stereo not drawn) [B-7] | 140 | 139 | 0.99 |
| C=CCOCC(C)OCC(C)OCC(C)OCC(C)OCC(C)OCC(C)OCC(C)OC (stereo not drawn) [B-5] | 129 | 120 | 0.93 |
| CCCCOCC(C)OCC(C)OCC(C)OCC(C)O (stereo not drawn) [A-1] | 132 | 112 | 0.85 |
| CCCCOCCOCC(C)OCC(C)OCC(C)OCC(C)OCC(C)OC (stereo not drawn) [B-2] | 157 | 140 | 0.89 |
| CC(O)COC(C)COC(C)CO (stereo not drawn) [C-2, tripropylene glycol, reference compound] | 92 | 65 | 0.71 |
| OCCCCOCCCCOCCCCO [C-3, PTMG250, reference compound] | 72 | 56 | 0.78 |
